# Assay results: patent US9969749B2, “Inhibitors of IRAK4 activity” (MERCK SHARP & DOHME CORP., priority 2014, dated 2018)
# Target: IRAK4 (Homo sapiens (Human), UniProt Q9NWZ3)
# Assay: IRAK4 Kinase Assay (IMAP fluorescence polarization)
# Format: biochemical
# Conditions: 0.5 nM GST tagged IRAK4, 100 μM ATP, 100 nM fluorescent peptide substrate RP7030, 30 minutes at 25° C.
# How it was run: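 GST-tagged IRAK4 (0.5 nM) phosphorylates 100 nM fluorescent peptide with 100 μM ATP in 10 mM Tris pH 7.2, 1 mM MgCl2, 1 mM DTT, 0.01% Tween 20 for 30 min at 25 °C. Phosphorylation read as IMAP nanoparticle-binding fluorescence polarization after stop reagent.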
# IRAK4, sequence (Q9NWZ3 whole entry): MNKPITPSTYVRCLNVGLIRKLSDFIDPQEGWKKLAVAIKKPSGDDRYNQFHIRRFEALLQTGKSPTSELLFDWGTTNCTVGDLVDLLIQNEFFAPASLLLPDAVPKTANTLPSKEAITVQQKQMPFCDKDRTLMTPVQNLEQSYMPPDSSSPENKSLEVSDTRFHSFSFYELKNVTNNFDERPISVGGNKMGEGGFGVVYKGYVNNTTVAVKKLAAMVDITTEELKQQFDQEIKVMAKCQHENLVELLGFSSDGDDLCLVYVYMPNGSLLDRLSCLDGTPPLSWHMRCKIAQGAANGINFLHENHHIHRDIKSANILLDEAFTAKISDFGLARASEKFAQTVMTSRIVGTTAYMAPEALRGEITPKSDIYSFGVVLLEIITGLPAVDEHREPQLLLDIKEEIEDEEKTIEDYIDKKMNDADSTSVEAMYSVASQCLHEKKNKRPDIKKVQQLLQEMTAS
row,SMILES,IC50
1,"Nc1cc(-c2ccc3ncnc(N[C@H]4CC[C@H](N5CCOCC5)CC4)c3c2)cnc1Cl [Example 2-36, 6-(5-amino-6-chloropyridin-3-yl)-N-[trans-4-(morpholin-4-yl)cyclohexyl]quinazolin-4-amine]",10 nM
2,"CN(C)[C@H]1CC[C@H](Nc2ncnc3ccc(-c4cncc(O)c4)cc23)CC1 [Example 3-1, 5-(4-(((Trans)-4-(dimethylamino)cyclohexyl)amino)quinazolin-6-yl)pyridin-3-ol]",1 nM
3,"CN(C)C(=O)c1cccc(-c2ccc3ncnc(N[C@H]4CC[C@H](N5CCOCC5)CC4)c3c2)n1 [Example 4-1, N,N-Dimethyl-6-(4-(((trans)-4-morpholinocyclohexyl)amino)quinazolin-6-yl)picolinamide]",32 nM
4,"Oc1cc(-c2ccc3ncnc(N[C@H]4CC[C@H](N5CCC(F)(F)CC5)CC4)c3c2)cnc1F [Example 5-1, 5-(4-{[Trans-4-(4,4-difluoropiperidin-1-yl)cyclohexyl]amino}quinazolin-6-yl)-2-fluoropyridin-3-ol]",< 0.5 nM
5,"COC1CN([C@H]2CC[C@H](Nc3ncnc4ccc(-c5cncc(O)c5)cc34)CC2)C1 [Example 5-2, 5-(4-{[trans-4-(3-methoxyazetidin-1-yl)cyclohexyl]amino}quinazolin-6-yl)pyridin-3-ol]",1 nM
6,"CN(C1CC1)[C@H]1CC[C@H](Nc2ncnc3ccc(-c4cncc(O)c4)cc23)CC1 [Example 5-3, 5-[4-({trans-4-[cyclopropyl(methyl)amino]cyclohexyl}amino)quinazolin-6-yl]pyridin-3-ol]",1 nM
7,"COCCN[C@H]1CC[C@H](Nc2ncnc3ccc(-c4cncc(O)c4)cc23)CC1 [Example 5-4, 5-[4-({trans-4-[(2-methoxyethyl)amino]cyclohexyl}amino)quinazolin-6-yl]pyridin-3-ol]",< 0.5 nM
8,"CN1CCN([C@H]2CC[C@H](Nc3ncnc4ccc(-c5cncc(O)c5)cc34)CC2)CC1 [Example 5-5, 5-(4-{[trans-4-(4-methylpiperazin-1-yl)cyclohexyl]amino}quinazolin-6-yl)pyridin-3-ol]",1 nM
9,"C[C@@H]1CN([C@H]2CC[C@H](Nc3ncnc4ccc(-c5cncc(O)c5)cc34)CC2)C[C@H](C)O1 [Example 5-6, 5-[4-({trans-4-[(2R,6S)-2,6-dimethylmorpholin-4-yl]cyclohexyl}amino)quinazolin-6-yl]pyridin-3-ol]",< 0.5 nM
10,"CNc1cncc(-c2ccc3ncnc(N[C@H]4CC[C@H](N5CCN(S(C)(=O)=O)CC5)CC4)c3c2)c1 [Example 5-7, 6-[5-(methylamino)pyridin-3-yl]-N-{trans-4-[4-(methylsulfonyl)piperazin-1-yl]cyclohexyl}quinazolin-4-amine]",8 nM
11,"CNc1cncc(-c2ccc3ncnc(N[C@H]4CC[C@H](N5CCC(F)(F)CC5)CC4)c3c2)c1 [Example 5-8, N-[trans-4-(4,4-difluoropiperidin-1-yl)cyclohexyl]-6-[5-(methylamino)pyridin-3-yl]quinazolin-4-amine]",3 nM
12,"CNc1cncc(-c2ccc3ncnc(N[C@H]4CC[C@H](N5CCC(F)CC5)CC4)c3c2)c1 [Example 5-9, N-[trans-4-(4-fluoropiperidin-1-yl)cyclohexyl]-6-[5-(methylamino)pyridin-3-yl]quinazolin-4-amine]",3 nM
13,"CNc1cncc(-c2ccc3ncnc(N[C@H]4CC[C@H](N5CCC(CN6CCOCC6)CC5)CC4)c3c2)c1 [Example 5-10, 6-[5-(methylamino)pyridin-3-yl]-N-{trans-4-[4-(morpholin-4-ylmethyl)piperidin-1-yl]cyclohexyl}quinazolin-4-amine]",8 nM
14,"CNc1cncc(-c2ccc3ncnc(N[C@H]4CC[C@H](N5CCC[C@H](CN6CCOCC6)C5)CC4)c3c2)c1 [Example 5-11, 6-[5-(methylamino)pyridin-3-yl]-N-{trans-4-[(3R)-3-(morpholin-4-ylmethyl)piperidin-1-yl]cyclohexyl}quinazolin-4-amine]",2 nM
15,"CNc1cncc(-c2ccc3ncnc(N[C@H]4CC[C@H](N5CCC[C@@H](CN6CCOCC6)C5)CC4)c3c2)c1 [Example 5-12, 6-[5-(methylamino)pyridin-3-yl]-N-{trans-4-[(3S)-3-(morpholin-4-ylmethyl)piperidin-1-yl]cyclohexyl}quinazolin-4-amine]",5 nM
16,"Oc1cc(-c2ccc3ncnc(N[C@H]4CC[C@H](N5CCC(F)CC5)CC4)c3c2)cnc1F [Example 5-13, 2-fluoro-5-(4-{[trans-4-(4-fluoropiperidin-1-yl)cyclohexyl]amino}quinazolin-6-yl)pyridin-3-ol]",< 0.5 nM
17,"CS(=O)(=O)N1CCN([C@H]2CC[C@H](Nc3ncnc4ccc(-c5cnc(F)c(O)c5)cc34)CC2)CC1 [Example 5-14, 2-fluoro-5-[4-({trans-4-[4-(methylsulfonyl)piperazin-1-yl]cyclohexyl}amino)quinazolin-6-yl]pyridin-3-ol]",1 nM
18,"Nc1cc(-c2ccc3ncnc(N[C@H]4CC[C@H](N5CCC(F)(F)CC5)CC4)c3c2)cnc1F [Example 5-15, 6-(5-amino-6-fluoropyridin-3-yl)-N-[trans-4-(4,4-difluoropiperidin-1-yl)cyclohexyl]quinazolin-4-amine]",2 nM
19,"Nc1cc(-c2ccc3ncnc(N[C@H]4CC[C@H](N5CCC(F)CC5)CC4)c3c2)cnc1F [Example 5-16, 6-(5-amino-6-fluoropyridin-3-yl)-N-[trans-4-(4-fluoropiperidin-1-yl)cyclohexyl]quinazolin-4-amine]",1 nM
20,"Oc1cncc(-c2ccc3ncnc(N[C@H]4CC[C@H](N5CCC(F)(F)CC5)CC4)c3c2)c1 [Example 5-17, 5-(4-{[trans-4-(4,4-difluoropiperidin-1-yl)cyclohexyl]amino}quinazolin-6-yl)pyridin-3-ol]",< 0.5 nM
21,"Oc1cncc(-c2ccc3ncnc(N[C@H]4CC[C@H](N5CCC(F)CC5)CC4)c3c2)c1 [Example 5-18, 5-(4-{[trans-4-(4-fluoropiperidin-1-yl)cyclohexyl]amino}quinazolin-6-yl)pyridin-3-ol]",< 0.5 nM
22,"C[C@@H]1CN([C@H]2CC[C@H](Nc3ncnc4ccc(-c5cnc(F)c(N)c5)cc34)CC2)C[C@H](C)O1 [Example 5-19, 6-(5-amino-6-fluoropyridin-3-yl)-N-{trans-4-[(2R,6S)-2,6-dimethylmorpholin-4-yl]cyclohexyl}quinazolin-4-amine]",1 nM
23,"CS(=O)(=O)N1CCN([C@H]2CC[C@H](Nc3ncnc4ccc(-c5cnc(F)c(N)c5)cc34)CC2)CC1 [Example 5-20, 6-(5-amino-6-fluoropyridin-3-yl)-N-{trans-4-[4-(methylsulfonyl)piperazin-1-yl]cyclohexyl}quinazolin-4-amine]",4 nM
24,"Nc1cc(-c2ccc3ncnc(N[C@H]4CC[C@H](N5CCCC(CN6CCOCC6)C5)CC4)c3c2)cnc1F (stereo partly drawn) [Example 5-21, 6-(5-amino-6-fluoropyridin-3-yl)-N-{trans-4-[3-(morpholin-4-ylmethyl)piperidin-1-yl]cyclohexyl}quinazolin-4-amine]",2 nM
25,"Nc1cc(-c2ccc3ncnc(N[C@H]4CC[C@H](N5CCO[C@@H](CF)C5)CC4)c3c2)cnc1F [Example 5-22, 6-(5-amino-6-fluoropyridin-3-yl)-N-{trans-4-[(2R)-2-(fluoromethyl)morpholin-4-yl]cyclohexyl}quinazolin-4-amine]",4 nM
